According to PubChem BioAssay AID1259407 (Chemical Carcinogenesis Research Information System (CCRIS), 2018):
“Also recorded” adds a separate entry of the source. Active and inactive are the calls of the source. No rule for the calls is given here.

Test system: CCRIS mutagenicity, Ames/micronucleus/aberration tests
Experiment: CCRIS mutagenicity studies

O=C(c1ccccc1)C(O)c1ccccc1 (stereo unspecified)
mutagenic call (End Point: IN VITRO CHROMOSOMAL ABERRATIONS, Test System: CHL/IU CELLS, Metabolic Activation: RAT, LIVER, S-9, PHENOBARBITAL AND 5,6-BENZOFLAVONE): active; positive (structural changes)
mutagenic call (End Point: IN VITRO CHROMOSOMAL ABERRATIONS, Test System: CHO CELLS, Metabolic Activation: NONE): active; positive; weak response; precipitation occurred at 500 ug/ml; also recorded: inactive; negative; precipitation occurred at 500 ug/ml
mutagenic call (End Point: IN VITRO MICRONUCLEUS, Test System: CHL/IU CELLS, Metabolic Activation: RAT, LIVER, S-9, PHENOBARBITAL AND 5,6-BENZOFLAVONE): active; positive
mutagenic call (End Point: IN VIVO MICRONUCLEUS, Test System: BLOOD ERYTHROCYTES, Species: MOUSE, Strain/Sex: CD-1/MALE, Route: ORAL): inactive; negative
mutagenic call (Test System: AMES SALMONELLA TYPHIMURIUM, Strain/Indicator: TA97, Metabolic Activation: HAMSTER LIVER S-9, AROCLOR 1254 (10%), Method: PREINCUBATION): inactive; negative
mutagenic call (Test System: AMES SALMONELLA TYPHIMURIUM, Strain/Indicator: TA97, Metabolic Activation: NONE, Method: PREINCUBATION): inactive; negative
mutagenic call (Test System: AMES SALMONELLA TYPHIMURIUM, Strain/Indicator: TA97, Metabolic Activation: NONE, Method: STANDARD PLATE): inactive; negative
mutagenic call (Test System: AMES SALMONELLA TYPHIMURIUM, Strain/Indicator: TA97, Metabolic Activation: RAT LIVER S-9, AROCLOR 1254 (10%), Method: PREINCUBATION): inactive; negative
mutagenic call (Test System: AMES SALMONELLA TYPHIMURIUM, Strain/Indicator: TA97, Metabolic Activation: S-9, Method: STANDARD PLATE): inactive; negative
mutagenic call (Test System: AMES SALMONELLA TYPHIMURIUM, Strain/Indicator: TA98, Metabolic Activation: HAMSTER LIVER S-9, AROCLOR 1254 (10%), Method: PREINCUBATION): inactive; negative
mutagenic call (Test System: AMES SALMONELLA TYPHIMURIUM, Strain/Indicator: TA98, Metabolic Activation: NONE, Method: PREINCUBATION): inactive; negative
mutagenic call (Test System: AMES SALMONELLA TYPHIMURIUM, Strain/Indicator: TA98, Metabolic Activation: NONE, Method: STANDARD PLATE): inactive; negative
mutagenic call (Test System: AMES SALMONELLA TYPHIMURIUM, Strain/Indicator: TA98, Metabolic Activation: RAT LIVER S-9, AROCLOR 1254 (10%), Method: PREINCUBATION): inactive; negative
mutagenic call (Test System: AMES SALMONELLA TYPHIMURIUM, Strain/Indicator: TA98, Metabolic Activation: RAT, LIVER, S-9, AROCLOR 1254, Method: STANDARD PLATE): inactive; negative
mutagenic call (Test System: AMES SALMONELLA TYPHIMURIUM, Strain/Indicator: TA98, Metabolic Activation: S-9, Method: STANDARD PLATE): inactive; negative
mutagenic call (Test System: AMES SALMONELLA TYPHIMURIUM, Strain/Indicator: TA100, Metabolic Activation: HAMSTER LIVER S-9, AROCLOR 1254 (10%), Method: PREINCUBATION): inactive; negative
mutagenic call (Test System: AMES SALMONELLA TYPHIMURIUM, Strain/Indicator: TA100, Metabolic Activation: NONE, Method: PREINCUBATION): inactive; negative
mutagenic call (Test System: AMES SALMONELLA TYPHIMURIUM, Strain/Indicator: TA100, Metabolic Activation: NONE, Method: STANDARD PLATE): inactive; negative
mutagenic call (Test System: AMES SALMONELLA TYPHIMURIUM, Strain/Indicator: TA100, Metabolic Activation: RAT LIVER S-9 AROCLOR 1254 (10%), Method: PREINCUBATION): inactive; negative
mutagenic call (Test System: AMES SALMONELLA TYPHIMURIUM, Strain/Indicator: TA100, Metabolic Activation: RAT, LIVER, S-9, AROCLOR 1254, Method: STANDARD PLATE): inactive; negative
mutagenic call (Test System: AMES SALMONELLA TYPHIMURIUM, Strain/Indicator: TA100, Metabolic Activation: S-9, Method: STANDARD PLATE): inactive; negative
mutagenic call (Test System: AMES SALMONELLA TYPHIMURIUM, Strain/Indicator: TA102, Metabolic Activation: NONE, Method: STANDARD PLATE): inactive; negative
mutagenic call (Test System: AMES SALMONELLA TYPHIMURIUM, Strain/Indicator: TA102, Metabolic Activation: RAT LIVER S-9, PHENOBARBITAL AND 5,6-BENZOFLAVONE, Method: STANDARD PLATE): inactive; negative
mutagenic call (Test System: AMES SALMONELLA TYPHIMURIUM, Strain/Indicator: TA102, Metabolic Activation: RAT, LIVER, S-9, AROCLOR 1254, Method: STANDARD PLATE): inactive; negative
mutagenic call (Test System: AMES SALMONELLA TYPHIMURIUM, Strain/Indicator: TA102, Metabolic Activation: S-9, Method: STANDARD PLATE): inactive; negative
mutagenic call (Test System: AMES SALMONELLA TYPHIMURIUM, Strain/Indicator: TA1535, Metabolic Activation: HAMSTER LIVER S-9, AROCLOR 1254 (5%), Method: PREINCUBATION): inactive; negative
mutagenic call (Test System: AMES SALMONELLA TYPHIMURIUM, Strain/Indicator: TA1535, Metabolic Activation: HAMSTER LIVER S-9, AROCLOR 1254 (10%), Method: PREINCUBATION): inactive; negative
mutagenic call (Test System: AMES SALMONELLA TYPHIMURIUM, Strain/Indicator: TA1535, Metabolic Activation: NONE, Method: PREINCUBATION): active; positive
mutagenic call (Test System: AMES SALMONELLA TYPHIMURIUM, Strain/Indicator: TA1535, Metabolic Activation: NONE, Method: STANDARD PLATE): inactive; negative
mutagenic call (Test System: AMES SALMONELLA TYPHIMURIUM, Strain/Indicator: TA1535, Metabolic Activation: RAT LIVER S-9, AROCLOR 1254 (5%), Method: PREINCUBATION): inactive; negative
mutagenic call (Test System: AMES SALMONELLA TYPHIMURIUM, Strain/Indicator: TA1535, Metabolic Activation: RAT LIVER S-9, AROCLOR 1254 (10%), Method: PREINCUBATION): inactive; negative
mutagenic call (Test System: AMES SALMONELLA TYPHIMURIUM, Strain/Indicator: TA1535, Metabolic Activation: RAT, LIVER, S-9, AROCLOR 1254, Method: STANDARD PLATE): inactive; negative
mutagenic call (Test System: AMES SALMONELLA TYPHIMURIUM, Strain/Indicator: TA1537, Metabolic Activation: NONE, Method: STANDARD PLATE): inactive; negative
mutagenic call (Test System: AMES SALMONELLA TYPHIMURIUM, Strain/Indicator: TA1537, Metabolic Activation: RAT, LIVER, S-9, AROCLOR 1254, Method: STANDARD PLATE): inactive; negative
mutagenic call (Test System: AMES SALMONELLA TYPHIMURIUM, Strain/Indicator: TA1538, Metabolic Activation: NONE, Method: STANDARD PLATE): inactive; negative
mutagenic call (Test System: AMES SALMONELLA TYPHIMURIUM, Strain/Indicator: TA1538, Metabolic Activation: RAT, LIVER, S-9, AROCLOR 1254, Method: STANDARD PLATE): inactive; negative
mutagenic call (Test System: AMES SALMONELLA TYPHIMURIUM, Strain/Indicator: TA2638, Metabolic Activation: RAT LIVER S-9, PHENOBARBITAL AND 5,6-BENZOFLAVONE, Method: STANDARD PLATE): inactive; negative
mutagenic call (Test System: CHINESE HAMSTER OVARY, Strain/Indicator: CHO-K1-BH4 (HGPRT)/6-THIOGUANINE, Metabolic Activation: NONE, Method: SUSPENSION/PLATE): inactive; negative
mutagenic call (Test System: CHINESE HAMSTER OVARY, Strain/Indicator: CHO-K1-BH4 (HGPRT)/6-THIOGUANINE, Metabolic Activation: S-9, Method: SUSPENSION/PLATE): inactive; negative
mutagenic call (Test System: CHINESE HAMSTER OVARY, Strain/Indicator: CHO-K1-BH4 (HGPRT), Metabolic Activation: NONE, Method: SUSPENSION/PLATE): inactive; negative
mutagenic call (Test System: CHINESE HAMSTER OVARY, Strain/Indicator: CHO-K1-BH4 (HGPRT), Metabolic Activation: RAT, LIVER, S-9, AROCLOR, Method: SUSPENSION/PLATE): inactive; negative
mutagenic call (Test System: CHINESE HAMSTER V-79, Strain/Indicator: V-79 (HGPRT)/8-AZAGUANINE, Metabolic Activation: NONE, Method: REPLATING): inactive; negative
mutagenic call (Test System: CHINESE HAMSTER V-79, Strain/Indicator: V-79 (HGPRT)/8-AZAGUANINE, Metabolic Activation: RAT, LIVER, S-9, AROCLOR 1254, Method: REPLATING): active; positive
mutagenic call (Test System: CHINESE HAMSTER V-79, Strain/Indicator: V-79/6-THIOGUANINE, Metabolic Activation: NONE, Method: REPLATING): inactive; negative
mutagenic call (Test System: CHINESE HAMSTER V-79, Strain/Indicator: V-79/6-THIOGUANINE, Metabolic Activation: RAT, LIVER, S-9, PHENOBARBITAL AND 5,6-BENZOFLAVONE, Method: REPLATING): active; positive
mutagenic call (Test System: CHINESE HAMSTER V-79, Strain/Indicator: V-79/OUABAIN, Metabolic Activation: HAMSTER EMBRYO CELL-MEDIATED): inactive; negative
mutagenic call (Test System: CHINESE HAMSTER V-79, Strain/Indicator: V-79/OUABAIN, Metabolic Activation: NONE): inactive; negative
mutagenic call (Test System: CHINESE HAMSTER V-79, Strain/Indicator: V-79/OUABAIN, Metabolic Activation: RAT, LIVER, S-15, PHENOBARBITAL AND 5,6-BENZOFLAVONE): inactive; negative
mutagenic call (Test System: E. COLI, Strain/Indicator: WP2 (PKM101), Metabolic Activation: RAT LIVER S-9, PHENOBARBITAL AND 5,6-BENZOFLAVONE, Method: STANDARD PLATE): inactive; negative
mutagenic call (Test System: E. COLI, Strain/Indicator: WP2 UVRA (PKM101), Metabolic Activation: RAT LIVER S-9, PHENOBARBITAL AND 5,6-BENZOFLAVONE, Method: STANDARD PLATE): inactive; negative
mutagenic call (Test System: MOUSE LYMPHOMA, Strain/Indicator: L5178Y (TK+/-)/TRIFLUROTHYMIDINE, Metabolic Activation: NONE, Method: SUSPENSION/PLATE): inactive; negative
mutagenic call (Test System: MOUSE LYMPHOMA, Strain/Indicator: L5178Y (TK+/-)/TRIFLUROTHYMIDINE, Metabolic Activation: RAT LIVER S-9, AROCLOR 1254, Method: SUSPENSION/PLATE): inactive; negative
mutagenic call (Test System: MOUSE LYMPHOMA, Strain/Indicator: L5178Y (TK+/TK-), Metabolic Activation: NONE, Method: SUSPENSION/PLATE): inactive; negative
mutagenic call (Test System: MOUSE LYMPHOMA, Strain/Indicator: L5178Y (TK+/TK-), Metabolic Activation: RAT, LIVER, S-9, Method: SUSPENSION/PLATE): inactive; negative
mutagenic call (Test System: MOUSE LYMPHOMA, Strain/Indicator: L5178Y (TK+/TK-), Metabolic Activation: S-9, Method: SUSPENSION/PLATE): active; positive
mutagenic call (Test System: UDS RAT HEPATOCYTES, Strain/Indicator: THY INCORP, Metabolic Activation: NONE, Method: LIQUID SCINTILLATION COUNTING): active; positive
